Assay results as given in US4861788A, “Antibacterial 1-normon-2-yl-heterocyclic compounds” (Beecham Group plc, priority 1983, dated 1989).
In brackets after ≈: the same amount, converted by molar mass. Read-outs that look alike come from different tables or passages of the source.

What was measured:
[1] = system: M. hyopneumoniae JF 435; assay: MIC against Mycoplasma in vitro (Friis broth with agarose); format: cell-based; conditions: Mesomycoplasma hyopneumoniae, JF435, 144 h
[2] = system: M. hyopneumoniae Str. 11; assay: as above; format: cell-based; conditions: Mesomycoplasma hyopneumoniae
[3] = system: M. hyopneumoniae MS 16; assay: as above; format: cell-based; conditions: Mesomycoplasma hyopneumoniae, MS16, 144 h; M. hyopneumoniae MS 16; 6 days at 37° C; read-out: MIC
[4] = system: M. hyopneumoniae UCD 1; assay: as above; format: cell-based; conditions: Mesomycoplasma hyopneumoniae, UCD1, 144 h
[5] = system: M. hyopneumoniae TAM 6N; assay: as above; format: cell-based; conditions: Mesomycoplasma hyopneumoniae, TAM6N, 144 h
[6] = system: M. hyopneumoniae NCTC 101101; assay: as above; format: cell-based; conditions: Mesomycoplasma hyopneumoniae, NCTC101101, 144 h
[7] = system: M. hyorhinis ATCC 23234; assay: as above; format: cell-based; conditions: Mesomycoplasma hyorhinis, ATCC23234, 144 h; M. hyorhinis ATCC 23234; 6 days at 37° C; read-out: MIC
[8] = system: M. hyorhinis ATCC 25021; assay: as above; format: cell-based; conditions: Mesomycoplasma hyorhinis, ATCC25021, 144 h; M. hyorhinis ATCC 25021; 6 days at 37° C; read-out: MIC
[9] = system: M. hyosynoviae ATCC 25591; assay: as above; format: cell-based; conditions: 144 h; M. hyosynoviae ATCC 25591; 6 days at 37° C; read-out: MIC
[10] = system: M. bovigenitalium ATCC 14173; assay: as above; format: cell-based; conditions: 144 h
[11] = system: M. dispar NCTC 10125; assay: as above; format: cell-based; conditions: 144 h
[12] = system: M. pneumoniae ATCC 15492; assay: as above; format: cell-based; conditions: Mycoplasmoides pneumoniae, ATCC15492, 144 h; M. pneumoniae ATCC 15492; 6 days at 37° C; read-out: MIC
[13] = system: Bacillus subtilis 6633; assay: MIC against human bacteria in vitro (nutrient agar, chocolated horse blood); format: cell-based; conditions: human; Bacillus subtilis 6633; 18 hours at 37° C; read-out: MIC
Description: (§1) The activity of the normonyl derivaties of the Examples against various bacteria which are important in diseases of humans, was assayed in vitro using serial dilutions in nurient agar with 5% chocolated horse blood.

[14] = system: E. coli ESS; assay: as above; format: cell-based; conditions: Escherichia coli; human; E. coli ESS; 18 hours at 37° C; read-out: MIC
Description: as §1

[15] = system: Staph. aureus W2827; assay: as above; format: cell-based; conditions: Staphylococcus aureus; human; Staph. aureus W2827; 18 hours at 37° C; read-out: MIC
Description: as §1

[16] = system: Strep. faecalis I; assay: as above; format: cell-based; conditions: Enterococcus faecalis
Description: as §1

[17] = system: E. coli NCTC 10418; assay: MIC against veterinary bacteria in vitro (Diagnostic Sensitivity Test Agar); conditions: Escherichia coli, NCTC10418, 18 h
Description: (§2) The activity of the normonyl derivatives of the Examples against various veterinarily important bacteria, was assayed in vitro using two-fold serial dilutions in Diagnostic Sensitivity Test Agar inoculated with 10^4 organisms.

[18] = system: E. coli E1; assay: as above; conditions: Escherichia coli, E1, 18 h
Description: as §2

[19] = system: Bord. bronchiseptica B08; assay: as above; conditions: Bordetella bronchiseptica, B08, 18 h
Description: as §2

[20] = system: Bord. bronchiseptica B09; assay: as above; conditions: Bordetella bronchiseptica, B09, 18 h
Description: as §2

[21] = system: Past. multocida PA1; assay: as above; conditions: Pasteurella multocida, PA1, 18 h
Description: as §2

[22] = system: Past. multocida PA2; assay: as above; conditions: Pasteurella multocida, PA2, 18 h
Description: as §2

[23] = system: Past. haemolytica PA5; assay: as above; conditions: Mannheimia haemolytica, PA5, 18 h
Description: as §2

[24] = system: Staph. aureus B4 (pen. resistant); assay: as above; conditions: Staphylococcus aureus, 18 h
Description: as §2

[25] = system: Staph. aureus 152 (pen. sens); assay: as above; conditions: Staphylococcus aureus, 18 h
Description: as §2

[26] = system: Staph. aureus Oxford; assay: as above; conditions: Staphylococcus aureus, 18 h
Description: as §2

[27] = system: Strep. suis (group D) SPS11; assay: as above; conditions: Streptococcus suis, 18 h
Description: as §2

[28] = system: Strep. uberis SPU1; assay: as above; conditions: Streptococcus uberis, SPU1, 18 h
Description: as §2

[29] = system: Strep. dysgalactiae SPD1; assay: as above; conditions: Streptococcus dysgalactiae, SPD1, 18 h
Description: as §2

[30] = system: Strep. agalactiae SPA1; assay: as above; conditions: Streptococcus agalactiae, SPA1, 18 h
Description: as §2

[31] = 144 h, M. hyopneumoniae Str. 11, 6 days at 37° C, read-out: MIC
[32] = M. hyopneumoniae UCD 1, 6 days at 37° C, read-out: MIC
[33] = M. bovigenitalium ATCC 14173, 6 days at 37° C, read-out: MIC
[34] = M. dispar NCTC 10125, 6 days at 37° C, read-out: MIC
[35] = human, Strep. faecalis I, 18 hours at 37° C, read-out: MIC
[36] = M. hyopneumoniae JF 435, 6 days at 37° C, read-out: MIC
[37] = M. hyopneumoniae TAM 6N, 6 days at 37° C, read-out: MIC
[38] = M. hyopneumoniae NCTC 101101, 6 days at 37° C, read-out: MIC

Row | SMILES | MIC [3] [µg/mL] | MIC [7] [µg/mL] | MIC [8] [µg/mL] | MIC [9] [µg/mL] | MIC [12] [µg/mL] | MIC [13] [µg/mL] | MIC [14] [µg/mL] | MIC [15] [µg/mL] | MIC [17] [µg/mL] | MIC [18] [µg/mL] | MIC [19] [µg/mL] | MIC [20] [µg/mL] | MIC [21] [µg/mL] | MIC [22] [µg/mL] | MIC [23] [µg/mL] | MIC [24] [µg/mL] | MIC [25] [µg/mL] | MIC [26] [µg/mL] | MIC [27] [µg/mL] | MIC [28] [µg/mL] | also measured
1 | CC(=Cc1nnc(-c2cccc([N+](=O)[O-])c2)o1)CC1OCC(CC2OC2C(C)C(C)O)C(O)C1O (stereo not drawn) [Example 2, 2-m-Nitrophenyl-5-(1-normon-2-yl)-1,3,4-oxadiazole A] | 0.025 (≈ 0.0511 µM) | 0.025 (≈ 0.0511 µM) | 0.025 (≈ 0.0511 µM) | 0.5 (≈ 1.02 µM) | 2.5 (≈ 5.11 µM) | 4 (≈ 8.17 µM) | 4 (≈ 8.17 µM) | 64 (≈ 131 µM) | > 80 | > 80 | > 80 | 80 (≈ 163 µM) | 2.5 (≈ 5.11 µM) | 1.25 (≈ 2.55 µM) | 10 (≈ 20.4 µM) | 5 (≈ 10.2 µM) | 10 (≈ 20.4 µM) | 20 (≈ 40.9 µM) | > 80 | 2.5 (≈ 5.11 µM) | MIC [1]: 0.05 µg/mL (≈ 0.102 µM); MIC [2, 31]: 0.025 µg/mL (≈ 0.0511 µM); MIC [4, 32]: 0.025 µg/mL (≈ 0.0511 µM); MIC [5]: 0.05 µg/mL (≈ 0.102 µM); MIC [6]: 0.05 µg/mL (≈ 0.102 µM); MIC [10, 33]: 0.025 µg/mL (≈ 0.0511 µM); MIC [11, 34]: < 0.01 µg/mL; MIC [16, 35]: > 128 µg/mL; MIC [29]: 5 µg/mL (≈ 10.2 µM); MIC [30]: 10 µg/mL (≈ 20.4 µM)
2 | CSc1ccc(-c2nnc(C=C(C)CC3OCC(CC4OC4C(C)C(C)O)C(O)C3O)o2)cc1 (stereo not drawn) [Example 3, 2-p-Methylthiophenyl-5-(1-normon-2-yl)-1,3,4-oxadiazole A] | 0.5 (≈ 1.02 µM) | 0.5 (≈ 1.02 µM) | 0.5 (≈ 1.02 µM) | 2.5 (≈ 5.1 µM) | > 10 | 4 (≈ 8.15 µM) | 4 (≈ 8.15 µM) | 8 (≈ 16.3 µM) | > 80 | > 80 | > 80 | 5 (≈ 10.2 µM) | 2.5 (≈ 5.1 µM) | 2.5 (≈ 5.1 µM) | 20 (≈ 40.8 µM) | 2.5 (≈ 5.1 µM) | 2.5 (≈ 5.1 µM) | 5 (≈ 10.2 µM) | 80 (≈ 163 µM) | 2.5 (≈ 5.1 µM) | MIC [1, 36]: 2.5 µg/mL (≈ 5.1 µM); MIC ([2]; STR.11, 144 h): 1 µg/mL (≈ 2.04 µM); MIC [4, 32]: 1 µg/mL (≈ 2.04 µM); MIC [5, 37]: 2.5 µg/mL (≈ 5.1 µM); MIC [6]: 1 µg/mL (≈ 2.04 µM); MIC [10, 33]: 0.5 µg/mL (≈ 1.02 µM); MIC [11, 34]: 0.25 µg/mL (≈ 0.51 µM); MIC [16, 35]: > 128 µg/mL; MIC [29]: 10 µg/mL (≈ 20.4 µM); MIC [30]: 10 µg/mL (≈ 20.4 µM)
3 | CC(=Cc1nnc(-c2cccc(C#N)c2)o1)CC1OCC(CC2OC2C(C)C(C)O)C(O)C1O (stereo not drawn) [Example 11, 2-(m-Cyanophenyl)-5-(1-normon-2-yl)-1,3,4-oxadiazole A] | 0.1 (≈ 0.213 µM) | 0.1 (≈ 0.213 µM) | 0.1 (≈ 0.213 µM) | 0.5 (≈ 1.06 µM) | > 10 | 2 (≈ 4.26 µM) | 2 (≈ 4.26 µM) | 16 (≈ 34.1 µM) | > 80 | > 80 | > 80 | 40 (≈ 85.2 µM) | 2.5 (≈ 5.32 µM) | 0.312 (≈ 0.664 µM) | 10 (≈ 21.3 µM) | 20 (≈ 42.6 µM) | 20 (≈ 42.6 µM) | 5 (≈ 10.6 µM) | > 80 | 2.5 (≈ 5.32 µM) | MIC [1, 36]: 0.25 µg/mL (≈ 0.532 µM); MIC ([2]; STR.11, 144 h): 0.25 µg/mL (≈ 0.532 µM); MIC [4]: 0.25 µg/mL (≈ 0.532 µM); MIC [5, 37]: 0.25 µg/mL (≈ 0.532 µM); MIC [6]: 0.25 µg/mL (≈ 0.532 µM); MIC [10, 33]: 0.1 µg/mL (≈ 0.213 µM); MIC [11]: 0.05 µg/mL (≈ 0.106 µM); MIC [16, 35]: > 64 µg/mL; MIC [29]: 2.5 µg/mL (≈ 5.32 µM); MIC [30]: 5 µg/mL (≈ 10.6 µM)
4 | CC(=Cc1nnnn1CCCCCCCCC(=O)O)CC1OCC(CC2OC2C(C)C(C)O)C(O)C1O (stereo not drawn) [Example 14, Sodium 1-(8-carboxylatooctyl)-5-(1-normon-2-yl)-1H-tetrazole A] | > 10 | > 10 | > 10 | > 10 | > 10 | > 128 | > 128 | > 128 | > 80 | > 80 | > 80 | > 80 | 80 | 1.25 | > 80 | > 80 | > 80 | > 80 | > 80 | > 80 | MIC [1, 36]: > 10 µg/mL; MIC [2, 31]: > 10 µg/mL; MIC [4, 32]: > 10 µg/mL; MIC [5, 37]: > 10 µg/mL; MIC [6, 38]: > 10 µg/mL; MIC [10, 33]: 10 µg/mL; MIC [11, 34]: 10 µg/mL; MIC [16, 35]: > 128 µg/mL; MIC [29]: > 80 µg/mL; MIC [30]: > 80 µg/mL
5 | CC(=Cc1nnc(-c2ccccc2)o1)CC1OCC(CC2OC2C(C)C(C)O)C(O)C1O (stereo not drawn) [Example 1, 2-(1-Normon-2-yl)-5-phenyl-1,3,4-oxadiazole A] | 2.5 (≈ 5.62 µM) | 2.5 (≈ 5.62 µM) | 1 (≈ 2.25 µM) | 1 (≈ 2.25 µM) | > 10 | 5 (≈ 11.2 µM) | 10 (≈ 22.5 µM) | 25 (≈ 56.2 µM) | > 80 | > 80 | > 80 | 40 (≈ 90 µM) | 10 (≈ 22.5 µM) | 1.25 (≈ 2.81 µM) | 10 (≈ 22.5 µM) | 5 (≈ 11.2 µM) | 5 (≈ 11.2 µM) | 5 (≈ 11.2 µM) | 80 (≈ 180 µM) | 5 (≈ 11.2 µM) | MIC [1, 36]: 5 µg/mL (≈ 11.2 µM); MIC [2, 31]: 2.5 µg/mL (≈ 5.62 µM); MIC [4, 32]: 5 µg/mL (≈ 11.2 µM); MIC [5, 37]: 5 µg/mL (≈ 11.2 µM); MIC [6, 38]: 5 µg/mL (≈ 11.2 µM); MIC [10]: 0.1 µg/mL (≈ 0.225 µM); MIC [11, 34]: 0.5 µg/mL (≈ 1.12 µM); MIC ([16]; 18 h): > 100 µg/mL; MIC [29]: 10 µg/mL (≈ 22.5 µM); MIC [30]: 40 µg/mL (≈ 90 µM)
